Test results published in PubChem BioAssay (NCI).
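Following 48 hours of exposure in 96-well plates, responses at five concentrations were used to interpolate endpoints linearly. The concentration for 50% growth inhibition is given as GI50. The concentration for full growth arrest is given as TGI.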

Assays:
Assay in all cases: DTP human tumour cell line panel, 48 h
[1] = system: OVCAR-5 ovarian
[2] = system: BT-549 breast
[3] = system: SK-MEL-28 melanoma
[4] = system: UACC-257 melanoma
[5] = system: OVCAR-3 ovarian
[6] = system: UACC-62 melanoma
[7] = system: MDA-MB-435
[8] = system: MCF7 breast
[9] = system: SK-MEL-2 melanoma
[10] = system: MALME-3M melanoma

COc1ccc(COc2ccc(Cc3cnc(N)nc3N)cc2OC)cc1
GI50 [1]: > 25 µM
TGI [1]: > 25 µM
GI50 [2]: 12.1 µM
TGI [2]: > 25 µM
GI50 [3]: 24.8 µM
TGI [3]: > 25 µM
GI50 [4]: 8.48 µM
TGI [4]: > 25 µM
GI50 [5]: > 19.4 µM
TGI [5]: > 25 µM
GI50 [6]: 12 µM
TGI [6]: > 25 µM
GI50 [7]: > 25 µM
TGI [7]: > 25 µM
GI50 [8]: 11.7 µM
TGI [8]: > 25 µM
GI50 [9]: > 25 µM
TGI [9]: > 25 µM
GI50 [10]: > 5.1 µM
TGI [10]: > 25 µM

O=C(Nc1cccc(Cl)c1)Nc1cc(C(F)(F)F)ccc1Cl
GI50 [1]: 3.17 µM
TGI [1]: 12.7 µM
GI50 [2]: 2.81 µM
TGI [2]: 10.1 µM
GI50 [3]: 4.19 µM
TGI [3]: 29.6 µM
GI50 [4]: 2.66 µM
TGI [4]: 5.84 µM
GI50 [5]: 2.61 µM
TGI [5]: 7.19 µM
GI50 [6]: 2.8 µM
TGI [6]: 13.7 µM
GI50 [8]: 3.13 µM
TGI [8]: 18.1 µM
GI50 [9]: 2.24 µM
TGI [9]: 5.4 µM

CCCCCCCN(CCCCCCC)C(=N)c1ccc(OC)c2ccccc12
GI50 [1]: 1.29 µM
TGI [1]: 2.88 µM
GI50 [3]: 1.62 µM
TGI [3]: 3.17 µM
GI50 [5]: 1.6 µM
TGI [5]: 3.17 µM
GI50 [6]: 1.34 µM
TGI [6]: 2.77 µM
GI50 [7]: 1.48 µM
TGI [7]: 2.89 µM
GI50 [9]: 1.81 µM
TGI [9]: 3.4 µM

Cc1ccccc1C1SCc2nc3ccccc3n21 (stereo not given)
TGI [1]: > 100 µM
TGI [3]: > 100 µM
TGI [4]: > 100 µM
TGI [5]: > 100 µM
TGI [6]: > 100 µM
TGI [9]: > 100 µM
TGI [10]: > 100 µM

Clc1cc2ns[s+]c2cc1Cl
TGI [1]: > 100 µM
TGI [3]: > 100 µM
TGI [4]: > 100 µM
TGI [5]: > 100 µM
TGI [6]: > 100 µM
TGI [9]: > 100 µM
TGI [10]: > 100 µM

C=C1[C@H](O)C[C@@H](C(C)C(O)CC=C(C)C)[C@@H](O)[C@@H]2C(C)=CC[C@@H]12 (stereo not given in full)
GI50 [1]: > 100 µM
TGI [1]: > 100 µM
GI50 [2]: > 100 µM
TGI [2]: > 100 µM
GI50 [3]: > 100 µM
TGI [3]: > 100 µM
GI50 [4]: > 100 µM
TGI [4]: > 100 µM
GI50 [6]: 94.8 µM
TGI [6]: > 100 µM
GI50 [7]: > 100 µM
TGI [7]: > 100 µM
GI50 [8]: > 100 µM
TGI [8]: > 100 µM
GI50 [9]: > 100 µM
TGI [9]: > 100 µM
GI50 [10]: > 100 µM
TGI [10]: > 100 µM

NC1=NN(c2ccccc2)C(=O)C1/C(=N\NC(=O)c1cc2ccccc2cc1O)C(=O)Nc1ccc(Cl)c(Cl)c1 (stereo not given)
TGI [1]: > 100 µM
TGI [3]: > 100 µM
TGI [4]: 84 µM
TGI [5]: 54.8 µM
TGI [6]: 44.1 µM
TGI [9]: > 100 µM
TGI [10]: 97.6 µM

COc1ccc(NC(=O)CC2SC(=Nc3ccc(Cl)cc3C)NC2=O)c([N+](=O)[O-])c1 (stereo not given)
TGI [1]: > 100 µM
TGI [3]: > 100 µM
TGI [4]: > 100 µM
TGI [5]: > 100 µM
TGI [6]: > 100 µM
TGI [9]: > 100 µM
TGI [10]: > 100 µM

CC(C)(C)c1cc([Si](C)(C)C)c(C#N)c([Si](C)(C)C)c1
TGI [1]: > 100 µM
TGI [3]: > 100 µM
TGI [4]: > 100 µM
TGI [5]: > 100 µM
TGI [6]: > 100 µM
TGI [9]: > 100 µM
TGI [10]: > 100 µM

COc1cc(OC)c(OC)cc1/C=C/c1ccc2ccccc2n1
TGI [1]: > 10 µM
TGI [2]: > 10 µM
TGI [3]: > 10 µM
TGI [4]: > 10 µM
TGI [5]: > 10 µM
TGI [6]: > 10 µM
TGI [7]: > 10 µM
TGI [8]: > 10 µM
TGI [10]: > 10 µM

COc1ccc(C2[C@@H](Cl)C(=O)N2c2ccc(OC)cc2)cc1 (stereo not given in full)
TGI [1]: > 100 µM
TGI [3]: > 100 µM
TGI [4]: > 100 µM
TGI [5]: > 100 µM
TGI [6]: > 100 µM
TGI [9]: > 100 µM
TGI [10]: > 100 µM

CC1O[C@@H]2CCCCC(=O)[C@]2(C)[C@H]1C (stereo not given in full)
TGI [1]: > 100 µM
TGI [3]: > 100 µM
TGI [4]: > 100 µM
TGI [5]: > 100 µM
TGI [6]: > 100 µM
TGI [9]: > 100 µM
TGI [10]: > 100 µM

CCN(CC(O)COc1ccc2c(c1)[n+]([O-])nc(N)[n+]2[O-])C(C)=O (stereo not given)
TGI [1]: > 100 µM
TGI [2]: > 100 µM
TGI [3]: > 100 µM
TGI [4]: > 100 µM
TGI [5]: > 100 µM
TGI [6]: > 100 µM
TGI [7]: > 100 µM
TGI [8]: > 100 µM
TGI [9]: > 100 µM

COc1ccc(-c2oc(C=Nc3ccccc3)c([N+](=O)[O-])c2-c2ccc(OC)c(OC)c2)cc1OC
TGI [1]: > 100 µM
TGI [3]: > 100 µM
TGI [4]: > 100 µM
TGI [5]: > 100 µM
TGI [6]: > 100 µM
TGI [10]: > 100 µM

O=c1[nH]c(C2CCCCC2)nc2ccc(Cl)cc12
TGI [1]: > 100 µM
TGI [3]: > 100 µM
TGI [4]: > 100 µM
TGI [5]: > 100 µM
TGI [6]: > 100 µM
TGI [9]: > 100 µM
TGI [10]: > 100 µM

O=C1/C(=C/c2ccc(C(=O)O)cc2)CNC/C1=C\c1ccc(C(=O)O)cc1
TGI [1]: > 100 µM
TGI [3]: > 100 µM
TGI [4]: > 100 µM
TGI [5]: > 100 µM
TGI [6]: > 100 µM
TGI [10]: > 100 µM

COC1C[C@H](O[C@@H]2C[C@H](O[C@@H]3C[C@H](O[C@@H]4C(=O)c5c(cc6cc(O[C@H]7C[C@@H](O[C@H]8C[C@@H](O)[C@H](O)C(C)O8)[C@H](O)C(C)O7)c(C)c(O)c6c5O)C[C@H]4C(OC)C(=O)[C@@H](O)[C@@H](C)O)OC(C)[C@H]3O)OC(C)[C@@H]2O)OC(C)[C@@H]1O (stereo not given in full)
GI50 [1]: 0.106 µM
TGI [1]: > 32.5 µM
GI50 [2]: 0.0785 µM
TGI [2]: 0.565 µM
GI50 [4]: 0.0825 µM
TGI [4]: 0.262 µM
GI50 [5]: 0.0936 µM
TGI [5]: 0.773 µM
GI50 [6]: 0.0434 µM
TGI [6]: 0.134 µM
GI50 [7]: 0.0949 µM
TGI [7]: 0.45 µM
GI50 [8]: 0.0493 µM
TGI [8]: > 32.5 µM
GI50 [9]: 0.068 µM
TGI [9]: 0.165 µM
GI50 [10]: 0.0861 µM
TGI [10]: 0.437 µM

c1ccc2cc(Cn3c(-c4cccc5ccccc45)[n+](Cc4ccc5ccccc5c4)c4c5ccccc5c5ccccc5c43)ccc2c1
GI50 [1]: 0.378 µM
TGI [1]: 1.68 µM
GI50 [6]: 0.302 µM
TGI [6]: 1.35 µM
GI50 [7]: 0.359 µM
TGI [7]: 1.38 µM
GI50 [8]: 0.244 µM
TGI [8]: 1.2 µM
GI50 [10]: 0.285 µM
TGI [10]: 1.45 µM

CC#CC#C/C=C1/C=CC2(CCCCO2)O1 (stereo not given)
TGI [1]: > 100 µM
TGI [2]: > 100 µM
TGI [3]: > 100 µM
TGI [4]: > 100 µM
TGI [6]: > 100 µM
TGI [7]: > 100 µM
TGI [8]: > 100 µM
TGI [9]: > 100 µM
TGI [10]: > 100 µM

CN1C(=O)CC(CC(=O)C2CCCCC2=O)CC1=O (stereo not given)
TGI [1]: > 100 µM
TGI [3]: > 100 µM
TGI [4]: > 100 µM
TGI [5]: > 100 µM
TGI [6]: > 100 µM
TGI [10]: > 100 µM
